By pIC50 is commonly meant the negative decadic logarithm of the IC50, by convention in mol/L. Higher therefore signals a low IC50.

This note sets out measurements from ChEMBL document CHEMBL5729023, “Tricyclic compounds for use in treatment of proliferative disorders” (2022).

pIC50: −log10 of the molar value.

Sequence of PRMT5/MEP50 complex (O14744 whole entry): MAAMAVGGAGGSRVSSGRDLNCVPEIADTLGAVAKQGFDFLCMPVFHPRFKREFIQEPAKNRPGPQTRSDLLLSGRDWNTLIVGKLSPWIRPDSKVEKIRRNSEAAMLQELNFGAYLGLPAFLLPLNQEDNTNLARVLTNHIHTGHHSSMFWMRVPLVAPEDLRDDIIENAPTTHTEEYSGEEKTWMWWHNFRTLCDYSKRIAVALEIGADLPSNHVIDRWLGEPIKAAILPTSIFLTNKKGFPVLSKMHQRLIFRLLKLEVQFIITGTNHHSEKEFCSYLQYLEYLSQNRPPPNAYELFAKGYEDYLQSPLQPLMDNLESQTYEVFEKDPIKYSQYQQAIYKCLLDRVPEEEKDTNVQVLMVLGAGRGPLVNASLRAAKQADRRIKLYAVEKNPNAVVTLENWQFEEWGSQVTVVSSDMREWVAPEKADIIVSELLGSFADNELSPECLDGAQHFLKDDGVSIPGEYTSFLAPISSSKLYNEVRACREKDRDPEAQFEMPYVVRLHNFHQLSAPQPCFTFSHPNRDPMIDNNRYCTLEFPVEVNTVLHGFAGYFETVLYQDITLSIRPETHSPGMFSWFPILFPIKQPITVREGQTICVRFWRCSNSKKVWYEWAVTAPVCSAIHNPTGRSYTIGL
Sequence of PRMT5/MEP50 complex (Q9BQA1 whole entry, further chain): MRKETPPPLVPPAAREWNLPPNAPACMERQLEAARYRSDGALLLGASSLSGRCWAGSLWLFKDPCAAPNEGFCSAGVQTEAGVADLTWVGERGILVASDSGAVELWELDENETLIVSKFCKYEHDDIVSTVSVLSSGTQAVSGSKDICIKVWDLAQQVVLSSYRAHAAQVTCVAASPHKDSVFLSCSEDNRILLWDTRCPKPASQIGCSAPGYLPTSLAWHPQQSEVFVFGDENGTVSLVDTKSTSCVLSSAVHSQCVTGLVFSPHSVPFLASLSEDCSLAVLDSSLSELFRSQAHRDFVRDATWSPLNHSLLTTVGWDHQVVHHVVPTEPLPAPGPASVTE

The test concerns the target PRMT5/MEP50 complex (Homo sapiens, UniProt O14744). Put plainly: Chemiluminescent Assay: A PRMT5 chemiluminescent assay was used to measure the […] activity of PRMT5. Biotinylated histone peptides were synthesized and attached to 384-well plates. Compound serial dilutions were performed and added to the assay plate. Histone H4 monomethyl R3 antibody was obtained from Abcam. A master mix for each well was prepared and human PRMT5/MEP50 (expressed in HEK293 cells) diluted in assay buffer to a concentration of 5 ng/μL. The reaction was incubated and slowly rotated for 60 minutes at the point of PRMT5/MEP50 addition. The supernatant from the wells was removed and blocking buffer was added to each well and rotated for 10 minutes. The primary antibody was diluted and added to every well for 60 minutes, before it was removed and the wells washed. The horse radish peroxidase (HRP)-coupled secondary antibody was diluted and added to each well with an incubation time of 30 minutes. The HRP chemiluminescent substrate was added to every well. The plate was read on a Flourstar Omega BMG Labtech instrument (Ortenberg, Germany) and the analysis of IC50 was performed using the Flourstar Omega BMG Labtech software. In kind it is biochemical.
Compound `O=C(NCC(O)CN1CCc2[nH]c3ccccc3c2C1)c1ccc(C(=O)N2C3CCC2COC3)cc1` (centres undefined) showed a pIC50 of 5.76.

Consider `Cn1c2c(c3ccccc31)CN(CC(O)CNC(=O)c1ccc(C(=O)N3C4CCC3COC4)cc1)CC2` (centres undefined), for which the pIC50 is 5.48.

Consider `CN1CCN(c2nc(NC3CCC3)cc(C(=O)NCC(O)CN3CCc4[nH]c5ccccc5c4C3)n2)CC1` (centres undefined), for which the pIC50 is 6.28. This pIC50 is 0.80 log units higher than that of the compound before.

Compound `O=C(NCC(O)CN1CCc2[nH]c3ccccc3c2C1)c1cc(NC2CCC2)ncn1` (centres undefined) had a pIC50 of 5.77.
